Laboratory results published in patent US20020032176A1, “CARCINOGENESIS INHIBITORS” (priority 1996, published 2002).
Read-outs that look alike come from different tables or passages of the source.

How the values were obtained:
Raji cells = details: 1000 Mol ratio/TPA (20 ng = 32 pmol/ml); 48 hours
Protocol: Measurement conditions of inactivation of Epstein-Barr virus genome incidence, using the acetone extracts and the hexane extracts, are as follows. PRMI1640 added embryonic serums and antibiotics are used as the culture liquid of Raji cells, virus latent infection-human lymphotropic bulbous cells. Under this culture conditions, the rate of natural incidence of Epstein-Barr virus of early antigens are not more than 0.1%. Raji cells, adjusted at the concentration of 1×10^6 cell/ml is cultured for 48 hours at 37° C. in the above described culture liquid after adding 4 mM of n-butyric acid, 20 ng/ml of TPA and 100 μg/ml of test substance. Then cells which generated Epstein-Barr virus early antigens are detected in the indirect immunofluorescence method using serums from epipharynx cancer patients. The ratio of positive cells calculated against the control without adding testisubstance is regarded as inactivation of virus genome incidence. In addition, the same inactivation were measured as varying the concentration of the test substance to 10, μg/ml and 1 μg/ml.

papilloma on mouse skin = experiment: Two-stage carcinogenesis inhibitory test on mouse skin (DMBA initiation, TPA promotion); format: in vivo, ICR female mice; details: for week after start of promotion on which the first tumor was formed: twice a week, positive control 7th week; for average number of tumors per mouse after 20 weeks: positive control 9.1; for carcinogenesis inhibitory effects (versus positive control tumors per mouse): 85 nmol test substance, after 20 weeks
Protocol: Body hair of one group of 15 ICR female mice (age 6 weeks) on their back were shaved and after 24 hours, applied (100 μg, 390 nmol) of 7,12-dimethylbenz[α]anthracene (hereinafter called “DMBA”) dissolved in acetone (0.1 ml) on their shaved skin of back as an initiation. Since one week later, each group of mice had been treated as follows:
First group: TPA (1 μg, 1.7 nmol) dissolved in acetone (0.1 ml) had been applied for 20 consecutive weeks, twice a week, as a promotion. During this treatment, additional acetone (0.1 ml) was applied on the same part one hour prior to each TPA application. (positive control group). […]
Until the 20th week since the start of a promotion by TPA application, incidence of papilloma on back of mice had been observed once a week. And the rate of mice with papilloma incidence and the average number of papilloma incidence per mouse were evaluated based on the comparison of the positive control group and the second group.
Body hair of one group of 15 ICR female mice (age 6 weeks) on their back were shaved and after 24 hours, applied ([…], 390 nmol) of 7,12-dimethylbenz[α]anthracene (hereinafter called “DMBA”) dissolved in acetone (0.1 ml) on their shaved skin of back as an initiation. Since one week later, each group of mice had been treated as follows:
Second-Fourth group: As the first group, TPA (1 μg, 1.7 nmol) dissolved in acetone (0.1 ml) had been applied for 20 consecutive weeks, twice a week, as a promotion but 85 nmol of test substance (capsanthin group) dissolved in acetone(0.1 ml) (separated by removing methanol extracts solvent), was applied one hour prior to each application instead of additional acetone. Each test substance was for Second group: Capsanthin, Third group: Capsanthin monoester, Fourth group: Capsanthin diester

[1] = tested on: Epstein-Barr virus early antigens in Raji cells; format: cell-based, human; details: 48 hours
Protocol: Epstein-Barr virus genome inactivating test is carried out as the first-stage screening test of anti-carcinogenesis promoter. In this test, inhibition of virus genome incident with tetradecanoylphorbolacetate (hereinafter called “TPA”) as its promoter, in a culture system of Raji cells is used as an indicator. The mentioned Raji cells are culture cells originated in species of […] lymph and holds Epstein-Barr virus genome inside. This method is not only rapid and quantitative but also available for detection of active substances in a small quantity.

[2] = 85 nmol test substance on skin one hour prior to each TPA application
[3] = 10 Mol ratio/TPA (20 ng = 32 pmol/ml)
[4] = 100 Mol ratio/TPA (20 ng = 32 pmol/ml)
[5] = 500 Mol ratio/TPA (20 ng = 32 pmol/ml)
[6] = 1000 Mol ratio/TPA (20 ng = 32 pmol/ml)

CC1=C(/C=C/C(C)=C/C=C/C(C)=C/C=C/C=C(C)/C=C/C=C(C)/C=C/C(=O)[C@]2(C)C[C@@H](O)CC2(C)C)C(C)(C)C[C@H](O)C1 [Capsanthin, capsanthin]
% survival rate of Raji cells (Raji cells): 70%
week after start of promotion on which the first tumor was formed (papilloma on mouse skin; [2]): 7 week
average number of tumors per mouse after 20 weeks (papilloma on mouse skin; [2]): 7.2
carcinogenesis inhibitory effects (versus positive control tumors per mouse) (papilloma on mouse skin): approximately 23%
% inhibitory rate [1, 3]: 0%
% inhibitory rate [1, 4]: 17.6%
% inhibitory rate [1, 5]: 59.7%
% inhibitory rate [1, 6]: 91.4%

CC(/C=C/C=C(C)/C=C/C(=O)[C@]1(C)C[C@@H](O)CC1(C)C)=C\C=C\C=C(C)\C=C\C=C(C)\C=C\[C@@]12O[C@@H](CC1(C)C)C[C@@]2(C)O [Capsantlim 3,6-epoxide, capsanthin 3,6-epoxide]
% survival rate of Raji cells (Raji cells): 70%
% inhibitory rate [1, 3]: 5.4%
% inhibitory rate [1, 4]: 20.8%
% inhibitory rate [1, 5]: 67.2%
% inhibitory rate [1, 6]: 100%

CC1=C(/C=C/C(C)=C/C=C/C(C)=C/C=C/C=C(C)/C=C/C=C(C)/C=C/C2=C(C)CCCC2(C)C)C(C)(C)CCC1 [β-Carotene, reference compound]
% survival rate of Raji cells (Raji cells): 70%
% inhibitory rate [1, 3]: 0%
% inhibitory rate [1, 4]: 10.6%
% inhibitory rate [1, 5]: 75.0%
% inhibitory rate [1, 6]: 97.5%

capsanthin diester
% survival rate of Raji cells (Raji cells): 70%
week after start of promotion on which the first tumor was formed (papilloma on mouse skin; [2]): 9 week
mice still free from tumor formation at the end of the 20-week experiment (papilloma on mouse skin; 85 nmol test substance on skin one hour prior to each TPA application, 20 weeks): 13.3%
average number of tumors per mouse after 20 weeks (papilloma on mouse skin; [2]): 4.5
carcinogenesis inhibitory effects (versus positive control tumors per mouse) (papilloma on mouse skin): ~45%
% inhibitory rate [1, 3]: 9.6%
% inhibitory rate [1, 4]: 30.7%
% inhibitory rate [1, 5]: 75.5%
% inhibitory rate [1, 6]: 100%

capsanthin monoester
% survival rate of Raji cells (Raji cells): 70%
week after start of promotion on which the first tumor was formed (papilloma on mouse skin; [2]): 9 week
average number of tumors per mouse after 20 weeks (papilloma on mouse skin; [2]): 6,5
carcinogenesis inhibitory effects (versus positive control tumors per mouse) (papilloma on mouse skin): ~31%
% inhibitory rate [1, 3]: 4.1%
% inhibitory rate [1, 4]: 26.6%
% inhibitory rate [1, 5]: 68.4%
% inhibitory rate [1, 6]: 96.8%

capsorubin
% survival rate of Raji cells (Raji cells): 70%
% inhibitory rate [1, 3]: 0%
% inhibitory rate [1, 4]: 19.9%
% inhibitory rate [1, 5]: 64.1%
% inhibitory rate [1, 6]: 100%

capsorubin diester
% survival rate of Raji cells (Raji cells): 70%
% inhibitory rate [1, 3]: 7.2%
% inhibitory rate [1, 4]: 28.0%
% inhibitory rate [1, 5]: 73.9%
% inhibitory rate [1, 6]: 100%

cucurbitaxanthin A-3′ esters [Cucurbitaxanthin-A-3′-ester]
% survival rate of Raji cells (Raji cells): 70%
% inhibitory rate [1, 3]: 0%
% inhibitory rate [1, 4]: 13.8%
% inhibitory rate [1, 5]: 61.0%
% inhibitory rate [1, 6]: 100%
